The results in this text go back to patent US9428504B2, “7-hydroxy-spiropipiperidine indolinyl antagonists of P2Y1 receptor” (BRISTOL-MYERS SQUIBB COMPANY, priority 2012, dated 2016).

Structures are written as SMILES. Counter-ions that a name gives are not always drawn. Like-named read-outs stand apart in the source and are kept apart here.

The target of test [1] is cloned human P2Y1 receptors (Homo sapiens (Human), UniProt P47900). Put plainly: Binding Assay B: Scintillation Proximity Assay (SPA) for P2Y1 binding. In outline:
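Membranes with ~15 fmol receptor (1.7 μg total protein) incubated with 0.3 nM [^33P]-labelled radioligand for 1 h at room temperature to completion. After centrifugation and removal of aqueous phase, bound radioactivity read by scintillation proximity; inhibition of radioligand binding measured.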

Test [2] has as its system human platelet rich plasma (PRP). Put plainly: ADP induced platelet aggregation assay. The following applies: Homo sapiens, Platelet, read-out: PA IC50 (μM) @ 10 μM ADP, platelet aggregation induced by 10 μM ADP, human PRP.
Setting [3] is: SPA, [33P] 2MeS-ADP displacement, read-out: P2Y1 Ki (nM) using binding assay B.

Chain of cloned human P2Y1 receptors (P47900 whole entry): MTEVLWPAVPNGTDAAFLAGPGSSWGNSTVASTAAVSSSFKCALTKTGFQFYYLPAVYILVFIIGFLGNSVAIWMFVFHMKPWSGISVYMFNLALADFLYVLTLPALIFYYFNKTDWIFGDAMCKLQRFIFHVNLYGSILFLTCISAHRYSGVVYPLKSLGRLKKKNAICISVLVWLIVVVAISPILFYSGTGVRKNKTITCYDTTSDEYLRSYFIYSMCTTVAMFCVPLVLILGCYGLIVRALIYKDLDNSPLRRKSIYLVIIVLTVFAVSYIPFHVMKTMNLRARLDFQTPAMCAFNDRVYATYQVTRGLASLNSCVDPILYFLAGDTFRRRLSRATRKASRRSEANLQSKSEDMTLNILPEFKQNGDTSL

With `CC(C)(C)CN1CCC2(CC1)CN(c1ccccc1NC(=O)Nc1csc(C(F)(F)F)n1)c1c(O)ccc(-c3nc4ccc(F)cc4s3)c12` [Example 132, 1-(2-(4-(6-Fluorobenzo[d]thiazol-2-yl)-7-hydroxy-1′-neopentylspiro[indoline-3,4′-piperidin]-1-yl)phenyl)-3-(2-(trifluoromethyl)thiazol-4-yl)urea], the Ki in test [1] (setting [3]) was 12.4 nM. In test [2], the IC50 worked out at 0.7 µM.

With `CC(C)(C)CN1CCC2(CC1)CN(c1ccccc1NC(=O)Nc1ccc(C(C)(C)C)cc1)c1c(O)ccc(Cl)c12` [Example 55, 1-(4-tert-Butylphenyl)-3-(2-(4-chloro-7-hydroxy-1′-neopentylspiro[indoline-3,4′-piperidine]-1-yl)phenyl)urea], in test [1] (setting [3]), the Ki is 9.7 nM. In addition, in test [2], the IC50 stood at 1 µM.

With `CC(C)(C)CN1CCC2(CC1)CN(c1ccccc1NC(=O)Nc1nc3ccc(F)cc3s1)c1c(O)cc(F)c(-c3ccc(Cl)cc3)c12` [Example 165, 1-(2-(4-(4-Chlorophenyl)-5-fluoro-7-hydroxy-1′-neopentylspiro[indoline-3,4′-piperidin]-1-yl)phenyl)-3-(6-fluorobenzo[d]thiazol-2-yl)urea], in test [1] (setting [3]), the Ki is 56.2 nM. In addition, the IC50 in test [2] worked out at 0.3 µM.

Consider `CC(C)(C)CN1CCC2(CC1)CN(c1ccccc1NC(=O)Nc1nc3ccc(Cl)nc3s1)c1c(O)cccc12` [Example 172, 1-(5-Chlorothiazolo[5,4-b]pyridin-2-yl)-3-(2-(7-hydroxy-1′-neopentylspiro[indoline-3,4′-piperidine]-1-yl)phenyl)urea], for which the inhibitory constant (Ki) in test [1] (setting [3]) amounted to 5.3 nM. Moreover, the IC50 in test [2] worked out at 0.6 µM.

In the case of `CC(C)(C)CN1CCC2(CC1)CN(c1ccccc1NC(=O)Nc1nc3ccc(Cl)nc3s1)c1c(O)ccc(-c3nc4ccc(Cl)cc4s3)c12` [Example 125, 1-(2-(4-(6-Chlorobenzo[d]thiazol-2-yl)-7-hydroxy-1′-neopentylspiro[indoline-3,4′-piperidin]-1-yl)phenyl)-3-(5-chlorothiazolo[5,4-b]pyridin-2-yl)urea], the Ki in test [1] (setting [3]) came to 21.6 nM. Besides, in test [2], the IC50 amounted to 0.9 µM.

For `CC(C)(C)CN1CCC2(CC1)CN(c1ccccc1NC(=O)Nc1csc(Cl)n1)c1c(O)ccc(Cl)c12` [Example 61, 1-(2-(4-Chloro-7-hydroxy-1′-neopentylspiro[indoline-3,4′-piperidin]-1-yl)phenyl)-3-(2-chlorothiazol-4-yl)urea], the Ki in test [1] (setting [3]) came to 5.8 nM. For the same compound, the IC50 in test [2] came to 0.2 µM.

`CC(C)CN1CCC2(CC1)CN(c1ccccc1NC(=O)Nc1ccc(C(F)(F)F)cc1)c1c(O)ccc(Cl)c12` [Example 64, 1-(2-(4-Chloro-7-hydroxy-1′-isobutylspiro[indoline-3,4′-piperidine]-1-yl)phenyl)-3-(4-(trifluoromethyl)phenyl)urea]: the Ki in test [1] (setting [3]) amounted to 6.5 nM. For the same compound, the 50% inhibitory concentration (IC50) in test [2] was 1 µM.

Turning to `CC(C)(C)CN1CCC2(CC1)CN(c1ccccc1NC(=O)Nc1ccc(F)cc1F)c1c(O)ccc(C(F)(F)F)c12` [Example 20, 1-(2,4-Difluorophenyl)-3-(2-(7-hydroxy-1′-neopentyl-4-(trifluoromethyl)spiro[indoline-3,4′-piperidine]-1-yl)phenyl)urea], the Ki in test [1] (setting [3]) stood at 3.2 nM. For the same compound, the IC50 in test [2] amounted to 0.2 µM.

For the compound `CC(C)(C)CN1CCC2(CC1)CN(c1ccccc1NC(=O)Nc1nc3c(s1)CN(C(=O)C(F)(F)F)CC3)c1c(O)ccc(Cl)c12` [Example 72, 1-(2-(4-Chloro-7-hydroxy-1′-neopentylspiro[indoline-3,4′-piperidine]-1-yl)phenyl)-3-(5-(2,2,2-trifluoroacetyl)-4,5,6,7-tetrahydrothiazolo[5.4-c]pyridin-2-yl)urea], the Ki in test [1] (setting [3]) is 22.4 nM. For the same compound, the IC50 in test [2] was found to be 0.2 µM.

`CC(C)(C)CN1CCC2(CC1)CN(c1ccccc1NC(=O)Nc1csc(Cl)n1)c1c(O)ccc(-c3nc4c(Cl)cccc4s3)c12` [Example 118, 1-(2-(4-(4-Chlorobenzo[d]thiazol-2-yl)-7-hydroxy-1′-neopentylspiro[indoline-3,4′-piperidin]-1-yl)phenyl)-3-(2-chlorothiazol-4-yl)urea]: the Ki in test [1] (setting [3]) was 15.5 nM. For the same compound, the IC50 in test [2] was found to be 0.3 µM.

As for `CC(C)(C)CN1CCC2(CC1)CN(c1ccccc1NC(=O)Nc1nc3ccc(Cl)cc3s1)c1c(O)ccc(C#N)c12` [Example 83, l-(6-Chlorobenzo[d]thiazol-2-yl)-3-(2-(4-cyano-7-hydroxy-1′-neopentylspiro[indoline-3,4′-piperidine]-1-yl)phenyl) urea, trifluoroacetic acid salt], the Ki in test [1] (setting [3]) came to 5.7 nM. For the same compound, in test [2], the IC50 came out at 0.2 µM.

`COc1ccc2nc(NC(=O)Nc3ccccc3N3CC4(CCN(CC(C)(C)C)CC4)c4c(Cl)ccc(O)c43)sc2n1` [Example 169, 1-(2-(4-Chloro-7-hydroxy-1′-neopentylspiro[indoline-3,4′-piperidine]-1-yl)phenyl)-3-(5-methoxythiazolo[5,4-b]pyridin-2-yl)urea]: the Ki in test [1] (setting [3]) came out at 11.5 nM. Moreover, the IC50 in test [2] stood at 0.2 µM.

For the compound `CC(C)(C)CN1CCC2(CC1)CN(c1ccccc1NC(=O)Nc1ccc(OC(F)(F)F)cc1)c1c(O)ccc(-c3nc4ccc(Br)cc4s3)c12` [Example 121, 1-(2-(4-(6-Bromobenzo[d]thiazol-2-yl)-7-hydroxy-1′-neopentylspiro[indoline-3,4′-piperidin]-1-yl)phenyl)-3-(4-(trifluoromethoxy)phenyl)urea], in test [1] (setting [3]), the Ki was determined as 45.6 nM. Besides, in test [2], the IC50 is 0.4 µM.

In the case of `CC(C)(C)CN1CCC2(CC1)CN(c1ncccc1NC(=O)Nc1ccc(OC(F)(F)F)cc1)c1c(O)ccc(C(F)(F)F)c12` [Example 12, 1-(2-(7-Hydroxy-1′-neopentyl-4-(trifluoromethyl)spiro[indoline-3,4′-piperidine]-1-yl)pyridin-3-yl)-3-(4-(trifluoromethoxy)phenyl)urea], the inhibition constant (Ki) in test [1] (setting [3]) is 5.6 nM. In addition, in test [2], the IC50 came out at 1.4 µM.

Take `COc1ccc2nc(-c3ccc(O)c4c3C3(CCN(CC(C)(C)C)CC3)CN4c3ccccc3NC(=O)Nc3csc(C(F)(F)F)n3)sc2c1` [Example 129, 1-(2-(7-Hydroxy-4-(6-methoxybenzo[d]thiazol-2-yl)-1′-neopentylspiro[indoline-3,4′-piperidin]-1-yl)phenyl)-3-(2-(trifluoromethyl)thiazol-4-yl)urea]: the Ki in test [1] (setting [3]) stood at 8.7 nM. Also, the IC50 in test [2] is 0.7 µM.

For the compound `CC(C)(C)CN1CCC2(CC1)CN(c1ccccc1NC(=O)Nc1nc3ccc(F)cc3s1)c1c(O)ccc(-c3nc4cc(F)ccc4s3)c12` [Example 138, 1-(6-Cluorobenzo[d]thiazol-2-yl)-3-(2-(4-(5-fluorobenzo[d]thiazol-2-yl)-7-hydroxy-1′-neopentylspiro[indoline-3,4′-piperidin]-1-yl)phenyl)urea], the inhibitory constant (Ki) in test [1] (setting [3]) was determined as 24.6 nM. The 50% inhibitory concentration (IC50) in test [2] was determined as 0.2 µM.

Turning to `CC(C)CN1CCCC1c1ccc(NC(=O)Nc2ccccc2N2CC3(CCN(CC(C)(C)C)CC3)c3c(F)cc(F)c(O)c32)cc1` (stereo not shown) [Example 99, 1-(2-(4,6-Difluoro-7-hydroxy-1′-neopentylspiro [indoline-3,4′-piperidine]-1-yl)phenyl)-3-(4-(1-isobutylpyrrolidin-2-yl)phenyl)urea], the Ki in test [1] was 14.2 nM. Besides, the IC50 in test [2] turned out to be 1.7 µM.

In the case of `CC(C)(C)CN1CCC2(CC1)CN(c1ccccc1NC(=O)Nc1ccc(OC(F)(F)F)cc1)c1c(O)ccc(Cl)c12` [Example 59, 1-(2-(4-Chloro-7-hydroxy-1′-neopentylspiro[indoline-3,4′-piperidine]-1-yl)phenyl)-3-(4-(trifluoromethoxy)phenyl)urea], in test [1] (setting [3]), the Ki is 7.2 nM. Also, in test [2], the IC50 was 0.4 µM.

Consider `CCSc1nsc(NC(=O)Nc2ccccc2N2CC3(CCN(CC(C)(C)C)CC3)c3c(C(F)(F)F)ccc(O)c32)n1` [Example 16, 1-(3-(Ethylthio)-1,2,4-thiadiazol-5-yl)-3-(2-(7-hydroxy-1′-neopentyl-4-(trifluoromethyl)spiro[indoline-3,4′-piperidine]-1-yl)phenyl)urea], for which the Ki in test [1] (setting [3]) came out at 8.1 nM. In addition, in test [2], the IC50 came out at 0.3 µM.

Consider `CC(C)(C)CN1CCC2(CC1)CN(c1ccccc1NC(=O)Nc1csc(C(F)(F)F)n1)c1c(O)ccc(-c3nc4cc(Cl)ccc4s3)c12` [Example 120, 1-(2-(4-(5-Chlorobenzo[d]thiazol-2-yl)-7-hydroxy-1′-neopentylspiro[indoline-3,4′-piperidin]-1-yl)phenyl)-3-(2-(trifluoromethyl)thiazol-4-yl)urea], for which the Ki in test [1] (setting [3]) was determined as 28.5 nM. Besides, in test [2], the IC50 came out at 0.6 µM.

Take `CC(C)C(=O)N1CCc2nc(NC(=O)Nc3ccccc3N3CC4(CCN(CC(C)(C)C)CC4)c4c(Cl)ccc(O)c43)sc2C1` [Example 73, 1-(2-(4-Chloro-7-hydroxy-1′-neopentylspiro[indoline-3,4′-piperidine]-1-yl)phenyl)-3-(5-isobutyryl-4,5,6,7-tetrahydrothiazolo [5,4-c]pyriidn-2-yl)urea]: in test [1] (setting [3]), the Ki came to 17.9 nM. Also, the IC50 in test [2] is 0.5 µM.

As to `CC(C)(C)CN1CCC2(CC1)CN(c1ccccc1NC(=O)Nc1ccc(C(F)(F)F)cc1)c1c(O)ccc(C(F)(F)F)c12` [Example 22, 1-(2-(7-Hydorxy-1′-neopentyl-4-(trifluoromethyl)spiro[indoline-3,4′-piperidine]-1-yl)phenyl)-3-(4-(trifluoromethyl)phenyl)urea], the Ki in test [1] (setting [3]) amounted to 4.4 nM. Besides, the IC50 in test [2] worked out at 0.2 µM.

As to `COc1ccc2nc(NC(=O)Nc3ccccc3N3CC4(CCN(CC(C)(C)C)CC4)c4c(-c5nc6cc(Cl)ccc6s5)ccc(O)c43)sc2c1` [Example 150, 1-(2-(4-(5-Chlorobenzo[d]thiazol-2-yl)-7-hydroxy-1′-neopentylspiro[indoline-3,4′-piperidin]-1-yl)phenyl)-3-(6-methoxybenzo[d]thiazol-2-yl)urea], the Ki in test [1] (setting [3]) came to 33.4 nM. The 50% inhibitory concentration (IC50) in test [2] is 0.9 µM.
